Reference: ChEMBL document CHEMBL2040764, “Bioactive briarane diterpenoids from the South China Sea gorgonian Dichotella gemmacea” (Bioorg Med Chem Lett, 2012)
Calls of active or inactive are those of the source. No cut-off for these calls is given here.

Columns and labels:
MG-63 = assay: Cytotoxicity against human MG63 cells by MTT assay; format: functional, cell-based
A549 = assay: Cytotoxicity against human A549 cells by MTT assay; format: functional, cell-based
Escherichia coli [1] = assay: Antibacterial activity against Escherichia coli at 2 mg/ml by agar diffusion test; format: functional; conditions: read-out: DIZ
Priestia megaterium [2] = assay: Antibacterial activity against Bacillus megaterium at 2 mg/ml by agar diffusion test; format: functional, organism-based
Microbotryum violaceum [3] = assay: Antifungal activity against Microbotryum violaceum at 2 mg/ml by agar diffusion test; format: functional; conditions: read-out: DIZ
[4] = system: Zymoseptoria tritici (Septoria tritici); assay: Antifungal activity against Septoria tritici at 2 mg/ml by agar diffusion test; conditions: read-out: DIZ
Escherichia coli [5] = assay: Antibacterial activity against Escherichia coli at 0.05 mg by agar diffusion test; format: functional; conditions: read-out: DIZ
Priestia megaterium [6] = assay: Antibacterial activity against Bacillus megaterium at 0.05 mg by agar diffusion test; format: functional; conditions: read-out: DIZ
Microbotryum violaceum [7] = assay: Antifungal activity against Microbotryum violaceum at 0.05 mg by agar diffusion test; format: functional; conditions: read-out: DIZ
Zymoseptoria tritici = assay: Antifungal activity against Septoria tritici at 0.05 mg by agar diffusion test; conditions: read-out: DIZ

## COc1cccc2c1C(=O)c1c(O)c3c(c(O)c1C2=O)C[C@@](O)(C(=O)CO)C[C@@H]3O[C@H]1C[C@H](N)[C@H](O)[C@H](C)O1 [DOXORUBICIN]
MG-63
  IC50: 3.2 µM

## C=C1[C@H](OC(=O)CC(C)C)C[C@H](OC(C)=O)[C@@]2(C)[C@@H](OC(C)=O)[C@@H](OC(=O)CC(C)C)[C@@H](OC(C)=O)[C@]3(CO3)[C@@H]2[C@H](OC(C)=O)[C@]2(O)[C@@H](C)C(=O)O[C@H]2[C@H]1Cl (relative stereo)
A549
  IC50: 19.1 µM
MG-63
  IC50: 17.4 µM
Escherichia coli [1]
  zone of inhibition at 2000 µg/mL: 17 mm
Priestia megaterium [2]
  Activity: inactive
Microbotryum violaceum [3]
  zone of inhibition at 2000 µg/mL: 13 mm
[4]
  zone of inhibition at 2000 µg/mL: 17 mm

## C=C1[C@H](OC(C)=O)C[C@H](OC(C)=O)[C@@]2(C)[C@@H](OC(=O)CC(C)C)C[C@@H](OC(C)=O)[C@]3(CO3)[C@@H]2[C@H](OC(C)=O)[C@]2(O)[C@@H](C)C(=O)O[C@H]2[C@H]1Cl (relative stereo)
A549
  IC50: 18 µM
MG-63
  IC50: 15.1 µM
Escherichia coli [1]
  zone of inhibition at 2000 µg/mL: 20 mm
Priestia megaterium [2]
  Activity: inactive
Microbotryum violaceum [3]
  zone of inhibition at 2000 µg/mL: 9.5 mm
[4]
  zone of inhibition at 2000 µg/mL: 9.5 mm

## C=C1[C@H](OC(C)=O)C[C@H](OC(C)=O)[C@@]2(C)[C@@H](OC(C)=O)C[C@@H](OC(=O)CC(C)C)[C@]3(CO3)[C@@H]2[C@H](OC(C)=O)[C@]2(O)[C@@H](C)C(=O)O[C@H]2[C@H]1Cl (relative stereo)
A549
  IC50: 16.9 µM
MG-63
  IC50: 18 µM
Escherichia coli [1]
  zone of inhibition at 2000 µg/mL: 19 mm
Priestia megaterium [2]
  Activity: inactive
Microbotryum violaceum [3]
  zone of inhibition at 2000 µg/mL: 14 mm
[4]
  zone of inhibition at 2000 µg/mL: 14 mm

## CN[C@@H]1[C@H](O[C@H]2[C@H](O[C@H]3[C@H](O)[C@@H](O)[C@H](N=C(N)N)[C@@H](O)[C@@H]3N=C(N)N)O[C@@H](C)[C@]2(O)C=O)O[C@@H](CO)[C@H](O)[C@H]1O [STREPTOMYCIN]
Escherichia coli [5]
  zone of inhibition at 50 µg/disc: 18 mm
Priestia megaterium [6]
  zone of inhibition at 50 µg/disc: 11 mm
Microbotryum violaceum [7]
  zone of inhibition at 50 µg/disc: 16 mm
Zymoseptoria tritici
  zone of inhibition at 50 µg/disc: 11 mm

## C=C1[C@H](OC(C)=O)C[C@H](OC(C)=O)[C@@]2(C)[C@@H](OC(C)=O)C[C@@H](OC(C)=O)[C@]3(CO3)[C@@H]2[C@H](OC(C)=O)[C@]2(O)[C@@H](C)C(=O)O[C@H]2[C@H]1Cl (relative stereo)
A549
  IC50: < 1.5 µM
MG-63
  IC50: 20.5 µM
Escherichia coli [1]
  zone of inhibition at 2000 µg/mL: 20 mm
Priestia megaterium [2]
  Activity: inactive
Microbotryum violaceum [3]
  zone of inhibition at 2000 µg/mL: 11 mm
[4]
  zone of inhibition at 2000 µg/mL: 13 mm

## C=C1CC[C@H](OC(C)=O)[C@@]2(C)[C@@H](OC(C)=O)C[C@@H](OC(=O)CC(C)C)[C@]3(CO3)[C@@H]2[C@H](OC(C)=O)[C@]2(O)[C@@H](C)C(=O)O[C@H]2[C@H]1Cl [JUNCENOLIDE J]
A549
  IC50: > 46.7 µM
MG-63
  IC50: > 46.7 µM
Escherichia coli [1]
  zone of inhibition at 2000 µg/mL: 11 mm
Priestia megaterium [2]
  Activity: inactive
Microbotryum violaceum [3]
  zone of inhibition at 2000 µg/mL: 10 mm
[4]
  zone of inhibition at 2000 µg/mL: 12 mm

## C=C1[C@H](Cl)[C@@H]2OC(=O)[C@H](C)[C@]23O[C@@H]1[C@H](OC(C)=O)[C@H](OC(C)=O)[C@@]1(C)[C@@H](OC(C)=O)CC[C@]2(CO2)[C@@H]1[C@@H]3OC(C)=O [PRAELOLIDE]
A549
  IC50: > 50.1 µM
MG-63
  IC50: > 50.1 µM
Escherichia coli [1]
  zone of inhibition at 2000 µg/mL: 18 mm
Priestia megaterium [2]
  Activity: inactive
Microbotryum violaceum [3]
  zone of inhibition at 2000 µg/mL: 11 mm
[4]
  zone of inhibition at 2000 µg/mL: 15 mm

## C=C1[C@H]2O[C@]3([C@@H](C)C(=O)O[C@H]3[C@H]1Cl)[C@@H](OC(C)=O)[C@H]1[C@@]3(CO3)[C@H](OC(=O)CC(C)C)C[C@H](OC(C)=O)[C@]1(C)[C@@H](OC(C)=O)[C@H]2OC(C)=O (relative stereo)
A549
  IC50: < 0.3 µM
MG-63
  IC50: < 0.3 µM
Escherichia coli [1]
  zone of inhibition at 2000 µg/mL: 34 mm
Priestia megaterium [2]
  Activity: inactive
Microbotryum violaceum [3]
  zone of inhibition at 2000 µg/mL: 11 mm
[4]
  zone of inhibition at 2000 µg/mL: 13 mm

## CC1(C)S[C@@H]2[C@H](NC(=O)Cc3ccccc3)C(=O)N2[C@H]1C(=O)O [PENICILLIN G]
Escherichia coli [5]
  zone of inhibition at 50 µg/disc: 26 mm
Priestia megaterium [6]
  zone of inhibition at 50 µg/disc: 18 mm
Microbotryum violaceum [7]
  zone of inhibition at 50 µg/disc: 14 mm
Zymoseptoria tritici
  zone of inhibition at 50 µg/disc: 12 mm

## C=C1[C@H]2O[C@]3([C@@H](C)C(=O)O[C@H]3[C@H]1Cl)[C@@H](OC(C)=O)[C@H]1[C@@]3(CO3)[C@H](OC(C)=O)C[C@H](OC(C)=O)[C@]1(C)[C@@H](OC(C)=O)[C@H]2OC(C)=O (relative stereo)
A549
  IC50: > 45.7 µM
MG-63
  IC50: > 45.7 µM
Escherichia coli [1]
  zone of inhibition at 2000 µg/mL: 20 mm
Priestia megaterium [2]
  Activity: inactive
Microbotryum violaceum [3]
  zone of inhibition at 2000 µg/mL: 15 mm
[4]
  zone of inhibition at 2000 µg/mL: 12 mm

## CC(=O)N1CCN(c2ccc(OCC3COC(Cn4ccnc4)(c4ccc(Cl)cc4Cl)O3)cc2)CC1 (stereo unspecified) [KETOCONAZOLE]
Escherichia coli [5]
  zone of inhibition at 50 µg/disc: 18 mm
Priestia megaterium [6]
  zone of inhibition at 50 µg/disc: 18 mm
Microbotryum violaceum [7]
  zone of inhibition at 50 µg/disc: 30 mm
Zymoseptoria tritici
  zone of inhibition at 50 µg/disc: 25 mm
